Where “and” joins values, the source holds several entries; their conditions need not be identical. Identical values can stand only once.
System: 519858-162-T-J1-PDC spheroid growth inhibition
Assay: Anticancer human tumor 519858-162-T-J1-PDC patient-derived colon adenocarcinoma cell line growth inhibition [TAK]
Conditions: spheroids with HUVEC and MSC; for viability, T/C: stronger effect = lower value
Source text: Combinatorial screen of targeted agents with TAK-243 and ipatasertib in multi-cell type tumor spheroids
A high-throughput screen of multi-cell type tumor spheroids was designed to identify active combinations of targeted small molecules and TAK-243 or ipatasertib. Complex spheroids include a stromal component modeled by human endothelial cells (HUVEC) and fibroblasts modeled by human mesenchymal stem cells (MSCs). The concentration ranges selected for each drug and investigational agent were based upon clinically achievable concentrations if the clinical Cmax of the agent was known.
Compounds. The drugs and investigational agents: TAK-243 (785004), ipatasertib (767898), everolimus (733504), selumetinib (741078), bortezomib (756655), trametinib (758246), ixazomib (758254), vemurafenib (761431), dabrafenib (764134), sapanisertib (764658), alpelisib (765974), and copanlisib (816437), were obtained from the National Cancer Institute (NCI) Developmental Therapeutics Program Chemical Repository. The FDA-approved anticancer drug set is available from the NCI Developmental Therapeutics Program. […] The stock solutions were prepared in dimethyl sulfoxide (DMSO, Sigma-Aldrich, St. Louis, MO, cat. D2650) at 800-fold the tested concentration and stored at -70 degrees C prior to their use. All drugs and investigational agents were tested over a range starting from a high concentration at or near the clinical Cmax and decreasing in half-log increments. If the clinical Cmax for an agent had not been determined, the highest concentration tested was 10 microM.
NCI60 Cell Culture. NCI60 cell lines were obtained from the NCI Developmental Therapeutics Program Tumor Repository. For each lot of cells, the Repository performed Applied Biosystems AmpFLSTR Identifiler testing with PCR amplification to confirm consistency with the published Identifier STR profile for each cell line. Cells were kept in continuous culture for no more than 20 passages. The optimal seeding densities for each of the cell lines at each time point assessed were determined prior to performing the concentration response studies. Briefly, the NCI60 human tumor lines were grown as monolayers in RPMI 1640 medium supplemented with 10% FBS and 2 mmol/L L-glutamine.
An additional 2 lines were from the NCI60 cell line panel including melanomas, MALME-3M and SK-MEL-2. Pooled donor human umbilical vein endothelial cells (HUVEC, Lonza, cat. CC-2519) and human mesenchymal stem cells (hMSC, Lonza, cat. PT-2501) were purchased from Lonza (Walkersville, MD).
PDMR cell lines were grown in complete medium (DC medium): Dulbecco's modified Eagle's medium (DMEM)/F12 supplemented with 5% fetal bovine serum (FBS), 2 mM L-glutamine, 100 U/mL penicillin and 100 µg/ml streptomycin, 0.4 µg/ml hydrocortisone, 10 ng/ml epidermal growth factor (EGF) recombinant human protein, 24 µg/mL adenine, and 0.1 mg/mL primocin. During culture from frozen stock vials, PDMR cells were cultured in the same medium containing 10 µM Y-27632 (see Table 3). The PDCs were cultured in complete DMEM/F12 media without 10 microM Y-27632 dihydrochloride for at least two passages prior to the screen. The pooled donor HUVEC and hMSC were cultured in endothelial cell growth medium 2 (PromoCell, Heidelberg, Germany, cat. C-22011) and mesenchymal stem cell growth medium 2 (PromoCell, cat. C-28009), respectively. For all experiments, HUVEC and hMSC were used at passages </=5.
For the pre-screen, cell seeding densities were determined from a titration spanning the range from 5,000 to 313 cells per well. The mct-spheroids including 60% malignant cells, 25% HUVEC and 15% MSC dispensed as a mixture into U-bottom Ultra-Low Attachment 384-well plates (Corning, NY)
High-throughput Drug Combination Screening.
Prior to their inoculation into 384-well plates, malignant cells, HUVEC, and hMSC were removed from T flasks using TrypLE express (Thermo Fisher Scientific, cat. 12605036) and harvested by centrifugation for 5 min at 233 x g. […]

[1] = curve of first compound, second compound 0.3 µM
[2] = curve of first compound, second compound 0.949 µM
[3] = curve of first compound, second compound 3 µM
[4] = curve of first compound, second compound 9.49 µM
[5] = curve of first compound, second compound 30 µM
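Note: spheroids exposed to drugs for 7 days.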

With COc1c(OCCCN2CCOCC2)ccc2c3n(c(=NC(=O)c4cnc(N)nc4)nc12)CCN3 + CC(C)NCC(C(=O)N1CCN(c2ncnc3c2C(C)CC3O)CC1)c1ccc(Cl)cc1 the IC50 [1] was 269 nM, the IC50 [2] was 391 nM and the IC50 [3] was > 1000 nM. For the same compound, the IC50 [4] was > 1000 nM, the IC50 [5] was 276 nM and the viability, T/C (second compound 0.3 µM, first compound 0.00316 µM) was 87.3%. It also gave a viability, T/C (second compound 0.3 µM, first compound 0.01 µM) of 78.4%, a viability, T/C (second compound 0.3 µM, first compound 0.0316 µM) of 65% and a viability, T/C (second compound 0.3 µM, first compound 0.1 µM) of 57.2%. The viability, T/C (second compound 0.3 µM, first compound 0.316 µM) was 49.5%, the viability, T/C (second compound 0.3 µM, first compound 1 µM) was 42.5% and the viability, T/C (second compound 0.949 µM, first compound 0.00316 µM) was 76.6%. It also gave a viability, T/C (second compound 0.949 µM, first compound 0.01 µM) of 75.1%, a viability, T/C (second compound 0.949 µM, first compound 0.0316 µM) of 73.8% and a viability, T/C (second compound 0.949 µM, first compound 0.1 µM) of 62.2%. The viability, T/C (second compound 0.949 µM, first compound 0.316 µM) was 56.2%, the viability, T/C (second compound 0.949 µM, first compound 1 µM) was 31.9% and the viability, T/C (second compound 3 µM, first compound 0.00316 µM) was 97.7%. It also gave a viability, T/C (second compound 3 µM, first compound 0.01 µM) of 71.4%, a viability, T/C (second compound 3 µM, first compound 0.0316 µM) of 68.1% and a viability, T/C (second compound 3 µM, first compound 0.1 µM) of 61.5%. The viability, T/C (second compound 3 µM, first compound 0.316 µM) was 51%, the viability, T/C (second compound 3 µM, first compound 1 µM) was 50.1% and the viability, T/C (second compound 9.49 µM, first compound 0.00316 µM) was 83.5%. It also gave a viability, T/C (second compound 9.49 µM, first compound 0.01 µM) of 87.2%, a viability, T/C (second compound 9.49 µM, first compound 0.0316 µM) of 72% and a viability, T/C (second compound 9.49 µM, first compound 0.1 µM) of 62.1%. It also gave a viability, T/C (second compound 9.49 µM, first compound 0.316 µM) of 60.5%, a viability, T/C (second compound 9.49 µM, first compound 1 µM) of 56.4% and a viability, T/C (second compound 30 µM, first compound 0.00316 µM) of 93.6%. It also gave a viability, T/C (second compound 30 µM, first compound 0.01 µM) of 77.6%, a viability, T/C (second compound 30 µM, first compound 0.0316 µM) of 73.6% and a viability, T/C (second compound 30 µM, first compound 0.1 µM) of 59.1%. For the same compound, the viability, T/C (second compound 30 µM, first compound 0.316 µM) was 43% and the viability, T/C (second compound 30 µM, first compound 1 µM) was 47.8%.
Work on Cn1cnc2c(F)c(Nc3ccc(Br)cc3Cl)c(C(=O)NOCCO)cc21 + CC(C)NCC(C(=O)N1CCN(c2ncnc3c2C(C)CC3O)CC1)c1ccc(Cl)cc1 yielded an IC50 [1] of 77.5 nM, an IC50 [2] of 68.7 nM and an IC50 [3] of 95.4 nM. The IC50 [4] was 139 nM, the IC50 [5] was 162 nM and the viability, T/C (second compound 0.3 µM, first compound 0.00949 µM) was 80.3%. The viability, T/C (second compound 0.3 µM, first compound 0.03 µM) was 62.7%, the viability, T/C (second compound 0.3 µM, first compound 0.0949 µM) was 49% and the viability, T/C (second compound 0.3 µM, first compound 0.3 µM) was 30.5%. For the same compound, the viability, T/C (second compound 0.3 µM, first compound 0.949 µM) was 17%, the viability, T/C (second compound 0.3 µM, first compound 3 µM) was 14% and the viability, T/C (second compound 0.949 µM, first compound 0.00949 µM) was 88.5%. The viability, T/C (second compound 0.949 µM, first compound 0.03 µM) was 64%, the viability, T/C (second compound 0.949 µM, first compound 0.0949 µM) was 44.1% and the viability, T/C (second compound 0.949 µM, first compound 0.3 µM) was 32.8%. The viability, T/C (second compound 0.949 µM, first compound 0.949 µM) was 15.7%, the viability, T/C (second compound 0.949 µM, first compound 3 µM) was 16.8% and the viability, T/C (second compound 3 µM, first compound 0.00949 µM) was 73.8%. For the same compound, the viability, T/C (second compound 3 µM, first compound 0.03 µM) was 66.9%, the viability, T/C (second compound 3 µM, first compound 0.0949 µM) was 50.1% and the viability, T/C (second compound 3 µM, first compound 0.3 µM) was 30.7%. For the same compound, the viability, T/C (second compound 3 µM, first compound 0.949 µM) was 24.6%, the viability, T/C (second compound 3 µM, first compound 3 µM) was 15.5% and the viability, T/C (second compound 9.49 µM, first compound 0.00949 µM) was 84.2%. For the same compound, the viability, T/C (second compound 9.49 µM, first compound 0.03 µM) was 85.3%, the viability, T/C (second compound 9.49 µM, first compound 0.0949 µM) was 53.8% and the viability, T/C (second compound 9.49 µM, first compound 0.3 µM) was 36.2%. It also gave a viability, T/C (second compound 9.49 µM, first compound 0.949 µM) of 23.4%, a viability, T/C (second compound 9.49 µM, first compound 3 µM) of 17% and a viability, T/C (second compound 30 µM, first compound 0.00949 µM) of 101%. The viability, T/C (second compound 30 µM, first compound 0.03 µM) was 79%, the viability, T/C (second compound 30 µM, first compound 0.0949 µM) was 68.7% and the viability, T/C (second compound 30 µM, first compound 0.3 µM) was 32.2%. For the same compound, the viability, T/C (second compound 30 µM, first compound 0.949 µM) was 21% and the viability, T/C (second compound 30 µM, first compound 3 µM) was 21.4%.
CCCS(=O)(=O)Nc1ccc(F)c(C(=O)c2c[nH]c3ncc(-c4ccc(Cl)cc4)cc23)c1F was tested, and the viability, T/C (compound 0.316 µM) was 99.3% and 108%, the viability, T/C (compound 1 µM) was 91.4% and 91.7% and the viability, T/C (compound 3.16 µM) was 105% and 126%. The viability, T/C (compound 10 µM) was 91.9% and 93%, the viability, T/C (compound 31.6 µM) was 114% and 129% and the viability, T/C (compound 100 µM) was 132% and 140%. For the same compound, the IC50 (curve of compound) was > 100000 nM.

From PubChem BioAssay AID2060354 (Molecular Pharmacology Branch, DTP, NCI, 2025)
